Reference: the NIST ThermoML archive (doi:10.1021/je049910c)
“And” between values parts separate entries of the source, which are not always exact repeats. Equal entries are not always repeated.

Legend:
[1] = Molar enthalpy of transition or fusion; details: Crystal; DSC
[2] = molar heat capacity at constant pressure; details: 101.33 kPa, Liquid
[3] = Crystal; DTA

[Br-].[Br-].[Br-].[Tb+3] [terbium tribromide]
Details | Molar enthalpy of transition or fusion [kcal/mol] | Normal melting temperature [°C]
[1] | 8.94 | –
[3] | – | 830

[2]
Details | molar heat capacity at constant pressure
305 K | 95.25 J/K/mol
310 K | 96.04 J/K/mol
315 K | 96.89 J/K/mol
320 K | 96.99 J/K/mol
325 K | 97.03 J/K/mol
330 K | 96.84 J/K/mol
335 K | 97.05 J/K/mol
340 K | 97.06 J/K/mol
345 K | 98.47 J/K/mol
350 K | 98.03 J/K/mol
354 K | 96.27 J/K/mol
359 K | 96.56 J/K/mol
364 K | 95.16 J/K/mol
369 K | 95.49 J/K/mol
374 K | 95.66 J/K/mol
379 K | 94.73 J/K/mol
384 K | 96.58 J/K/mol
389 K | 94.78 J/K/mol
394 K | 96.69 J/K/mol
399 K | 97.48 J/K/mol
404 K | 97.16 J/K/mol
409 K | 97.43 J/K/mol
414 K | 96.37 J/K/mol
419 K | 97.26 J/K/mol
424 K | 96.24 J/K/mol
429 K | 97.6 J/K/mol
434 K | 98.83 J/K/mol
439 K | 98.92 J/K/mol
444 K | 98.73 J/K/mol
449 K | 100.77 J/K/mol
454 K | 101.24 J/K/mol
459 K | 102.68 J/K/mol
464 K | 101.53 J/K/mol
469 K | 101.69 J/K/mol
474 K | 101.67 J/K/mol
479 K | 101.42 J/K/mol
484 K | 102.61 J/K/mol
489 K | 102.5 J/K/mol
494 K | 101.69 J/K/mol
499 K | 102.17 J/K/mol
504 K | 102.99 J/K/mol
509 K | 102.18 J/K/mol
514 K | 100.27 J/K/mol
519 K | 96.88 J/K/mol
524 K | 98.84 J/K/mol
529 K | 97.84 J/K/mol
534 K | 99.15 J/K/mol
539 K | 97.79 J/K/mol
543 K | 97.7 J/K/mol
548 K | 97.62 J/K/mol
553 K | 98.93 J/K/mol
558 K | 98.58 J/K/mol
568 K | 98.34 J/K/mol
573 K | 98.95 J/K/mol
578 K | 98.65 J/K/mol
583 K | 99.14 J/K/mol
588 K | 98.88 J/K/mol
593 K | 100.12 J/K/mol
598 K | 98.39 J/K/mol
603 K | 99.23 J/K/mol
608 K | 100.21 J/K/mol
613 K | 99.21 J/K/mol
618 K | 100.47 J/K/mol
623 K | 100.62 J/K/mol
628 K | 99.41 J/K/mol
633 K | 99.03 J/K/mol
638 K | 100.94 J/K/mol
643 K | 100.9 J/K/mol
648 K | 106.81 J/K/mol
653 K | 99.85 J/K/mol and 102.18 J/K/mol
658 K | 101.21 J/K/mol
663 K | 102.1 J/K/mol
668 K | 99.19 J/K/mol
673 K | 98.9 J/K/mol
678 K | 101.61 J/K/mol
683 K | 98.15 J/K/mol
688 K | 99.94 J/K/mol
693 K | 98.07 J/K/mol
698 K | 97.98 J/K/mol
703 K | 96.7 J/K/mol
708 K | 97.79 J/K/mol
713 K | 99.85 J/K/mol
717 K | 99.17 J/K/mol
722 K | 99.02 J/K/mol
727 K | 99.08 J/K/mol
732 K | 99.98 J/K/mol
737 K | 99.41 J/K/mol
742 K | 101.93 J/K/mol
747 K | 100.1 J/K/mol
752 K | 104.88 J/K/mol
757 K | 100.82 J/K/mol
762 K | 101 J/K/mol
767 K | 101.85 J/K/mol
772 K | 102.41 J/K/mol
777 K | 103.2 J/K/mol
782 K | 102.71 J/K/mol
787 K | 101.9 J/K/mol
792 K | 101.02 J/K/mol
797 K | 101.52 J/K/mol
802 K | 101.51 J/K/mol
807 K | 99.68 J/K/mol
812 K | 103.05 J/K/mol
817 K | 103.73 J/K/mol
822 K | 102.94 J/K/mol
827 K | 103.83 J/K/mol
832 K | 99.83 J/K/mol
837 K | 98.83 J/K/mol
842 K | 101.98 J/K/mol
847 K | 103.78 J/K/mol
852 K | 103.32 J/K/mol
857 K | 99.15 J/K/mol
862 K | 102.98 J/K/mol
867 K | 101.94 J/K/mol
872 K | 105.24 J/K/mol
877 K | 101.33 J/K/mol
882 K | 103.27 J/K/mol
887 K | 97.19 J/K/mol
892 K | 97.82 J/K/mol
897 K | 98.26 J/K/mol
902 K | 101.94 J/K/mol
907 K | 97.88 J/K/mol
911 K | 97.43 J/K/mol
916 K | 100.85 J/K/mol
921 K | 97.21 J/K/mol
926 K | 100.73 J/K/mol
931 K | 95.04 J/K/mol
936 K | 99.59 J/K/mol
941 K | 98.67 J/K/mol
946 K | 99.44 J/K/mol
951 K | 102.23 J/K/mol
956 K | 103.73 J/K/mol
961 K | 99.7 J/K/mol
966 K | 98.27 J/K/mol
971 K | 101.79 J/K/mol
976 K | 102.55 J/K/mol
981 K | 97.92 J/K/mol
986 K | 104.37 J/K/mol
991 K | 100.42 J/K/mol
996 K | 107.17 J/K/mol
1001 K | 105.67 J/K/mol
1006 K | 110.34 J/K/mol
1011 K | 102.11 J/K/mol
1016 K | 100.99 J/K/mol
1021 K | 106.91 J/K/mol
1026 K | 105.87 J/K/mol
1031 K | 112.44 J/K/mol
1036 K | 99.98 J/K/mol
1041 K | 101.71 J/K/mol
1046 K | 101.91 J/K/mol
1051 K | 106.32 J/K/mol
1056 K | 110.86 J/K/mol
1061 K | 111.7 J/K/mol
